Literature values in paper PMC8991498 (Food Chemistry: Molecular Sciences, 2021).

System: Caco-2 cell monolayers

Absorption of β-casein fragment (ref Regazzo et al. (2010)) | Sequence | Passage of RAP through Caco-2 cell monolayers (ref Xu et al. (2017))
could be absorbed mainly by transcytosis | YQEPVLGPVRGPFPIIV [β-casein fragment] | –
– | YWDHNNPQIR [RAP] | a percentage of this peptide managed to pass intact through the monolayer
